Entries after “also recorded” stand apart in the source; their conditions may differ.
Assays:
[1] = tested on: AsPC-1 human pancreatic adenocarcinoma cell line; experiment: MTT assay for cytotoxicity, AsPC-1 cells; assay type: cell-based; details: 24 h incubation, read-out: IC50 AsPC1 Cell Line
Protocol: (§1) U251 and U87 human glioblastoma cells were incubated in Dulbecco’s-modified Eagle’s medium (DMEM) (Wako Pure Chemical Industries, Osaka, Japan) supplemented with 10% fetal bovine serum (FBS) (Equitech-Bio, Kerrville, TX, USA). AsPC-1 human pancreas adenocarcinoma and Jurkat human leukemic T-cells were incubated RPMI 1640 (Wako Pure Chemical Industries), supplemented with 10% FBS. Peripheral blood mononuclear cells (PBMC) (Precision Bioservices, Frederick, MD, USA) were incubated RPMI 1640 and supplemented with 10% human serum AB (HS) (Gemini, Woodland, CA, USA). All media were supplemented with 89 µg/mL streptomycin (Meiji Seika Pharma, Tokyo, Japan) and cells were incubated at 37 °C in a humidified atmosphere of 95% air and 5% CO2. Growing cells were plated at 1 × 10^5 cells/mL into 24-well microtiter tissue culture plates (Iwaki brand Asahi Glass Co., Chiba, Japan) and incubated for 24 h before the addition of the drugs (the optimal cell number for cytotoxicity assays was determined in preliminary experiments). Stock solutions (1 mM, 5 mM, 10 mM, 20 mM, and 50 mM) of compounds and cisplatin (Sigma-Aldrich, St. Louis, MO, USA) were prepared in dimethyl sulfoxide (DMSO; Wako Pure Chemical Industries) and in dimethylformamide (DMF; Wako Pure Chemical Industries) respectively, then were added to fresh culture medium. The concentration of DMSO and DMF in the final culture medium was 1%. The level of cellular reduction of 3-(4,5-dimethylthiazol-2-yl)-2,5-diphenyltetrazolium bromide (MTT) (Dojindo Molecular Technologies, Kumamoto, Japan) was quantified as previously described in the literature with small modifications. The tested compounds were incubated with cells to give a final concentration in the range 50–500 µM for 24 h. At the end of this period, MTT was added to cells in culture to give a final concentration of 0.275 mg/mL and incubated further for 4 h at 37 °C. The medium was removed and the formazan crystals were solubilized by addition of 100 µL DMSO to each well. After the solubilized crystals were diluted (1:10) with DMSO, 100 µL was transferred to wells of 96-well microtiter plates (Iwaki brand Asahi Glass Co.) and the absorbance at 550 nm was measured using a microplate spectrophotometer Infinitive M1000 (Tecan, Groding, Austria). Every concentration was repeated in three wells and IC50 values were defined as the drug concentrations which reduced absorbance to 50 % of control values.

[2] = tested on: U87 human glioblastoma cell line; experiment: MTT assay for cytotoxicity, U87 cells; assay type: cell-based; details: for IC50: MTT, 24 h incubation
Protocol: as §1

[3] = tested on: U251 human glioblastoma cell line; experiment: MTT assay for cytotoxicity, U251 cells; assay type: cell-based; details: 24 h incubation
Protocol: as §1

[4] = tested on: peripheral blood mononuclear cells (PBMC); experiment: MTT cell viability, PBMC (tumor selectivity); assay type: cell-based, human; details: Figure 3b, read-out: IC50 against PBMC
Protocol: (§2) U251 and U87 human glioblastoma cells were incubated in Dulbecco’s-modified Eagle’s medium (DMEM) (Wako Pure Chemical Industries, Osaka, Japan) supplemented with 10% fetal bovine serum (FBS) (Equitech-Bio, Kerrville, TX, USA). AsPC-1 human pancreas adenocarcinoma and Jurkat human leukemic T-cells were incubated RPMI 1640 (Wako Pure Chemical Industries), supplemented with 10% FBS. Peripheral blood mononuclear cells (PBMC) (Precision Bioservices, Frederick, MD, USA) were incubated RPMI 1640 and supplemented with 10% human serum AB (HS) (Gemini, Woodland, CA, USA). […] Growing cells were plated at 1 × 10^5 cells/mL into 24-well microtiter tissue culture plates (Iwaki brand Asahi Glass Co., Chiba, Japan) and incubated for 24 h before the addition of the drugs (the optimal cell number for cytotoxicity assays was determined in preliminary experiments). […] The level of cellular reduction of 3-(4,5-dimethylthiazol-2-yl)-2,5-diphenyltetrazolium bromide (MTT) (Dojindo Molecular Technologies, Kumamoto, Japan) was quantified as previously described in the literature with small modifications. […] After the solubilized crystals were diluted (1:10) with DMSO, 100 µL was transferred to wells of 96-well microtiter plates (Iwaki brand Asahi Glass Co.) and the absorbance at 550 nm was measured using a microplate spectrophotometer Infinitive M1000 (Tecan, Groding, Austria). […]

[5] = tested on: Jurkat human leukemic T-cells; experiment: MTT cell viability, Jurkat cells (tumor selectivity); assay type: cell-based
Protocol: as §2

[6] = tested on: U251 cells; experiment: Detection of apoptotic and necrotic cells (annexin V/ethidium homodimer III staining); assay type: cell-based, human
From the text: U251 cells were stained and observed by fluorescence microscope (Figure 4). If the cells are colored green with annexin V, and not stained red with ethidium homodimer III, the cells are judged to be apoptotic. […] The apoptotic and necrotic effects of compound 11 were compared with cisplatin. […] Then, apoptotic/necrotic/healthy cells detection kit protocol was applied according to the manufacturer’s instruction manual (PromoKine, Heidelberg, Germany). After the cells were washed twice with 1 × binding buffer, a staining solution containing 50 µL of 1 × binding buffer, 2 µL of FTIC-Annexin V solution, 2 µL of ethidium homodimer III solution and 2 µL of Hoechst 33342 solution was added and the cells were incubated for 15 min at RT, protected from light. Cells were washed with 1 × binding buffer and analyzed by all-in-one fluorescence microscope Biorevo Fluorescence BZ-9000 (Keyence, Osaka, Japan).

[7] = tested on: supercoiled pUC19 DNA; experiment: DNA cleavage assay (agarose gel electrophoresis); assay type: biochemical; details: 37 °C, 1.5 h
Protocol: The DNA cleavage activities of compound 11 and cisplatin at the IC50 concentrations in water and Tris/boric acid buffer in the presence and absent of the iron complex, H2O2 and ascorbic acid as an activator were studied using supercoiled pUC19 DNA (Figure 5). The reaction mixture was incubated at 37 °C for 1.5 h and then agarose gel electrophoresis was performed at 100 V for 40 min. DNA was visualized by photographing the fluorescence of intercalated ethidium bromide under a UV illuminator. […] Thus, it is considered that DNA-cleavage was caused by oxygen activation.
The DNA cleavage activities of the compounds were studied using supercoiled pUC19 DNA and analyzed by agarose (Takara, Kyoto, Japan) gel electrophoresis Mupid-2x (Mupid, Tokyo, Japan). pUC19 DNA (2 µg) was treated with compounds in water and Tris/boric acid (Nacalai Tesque, Kyoto, Japan) buffer (10 mM, pH 8.5) in the presence and absence of iron (II) sulfate heptahydrate (FeSO4·7H2O; 30 µM) (Wako Pure Chemical Industries), hydrogen peroxide (H2O2; 30 µM) (Tokyo Chemical Industry Co., Tokyo, Japan) and ascorbic acid (30 µM) (Tokyo Chemical Industry Co.) as an activator. […] DNA was visualized by photographing the fluorescence of intercalated ethidium bromide under a UV illuminator (Nippon Genetics Co., Tokyo, Japan).

[8] = tested on: AsPC-1, U87 and U251 cell lines; experiment: MTT assay, overall activity on the three cell lines (in words); assay type: cell-based, human; details: 10–500 µM, all three cell lines
Protocol: as §2

Row | Molecule | IC50 [1] [µM] | IC50 [2] [µM] | IC50 [3] [µM] | further results
1 | 1-[(1-Phenyl-1H-tetrazol-5-yl)thioacetyl]-3-(2-thienyl)-5-(4-chlorophenyl)-2-pyrazoline [Compound 3] | > 500 | > 500 | > 500 | 
2 | 1-[(5-(4-Methylphenyl)-1,3,4-oxadiazol-2-yl)thioacetyl]-3-(2-thienyl)-5-(4-chlorophenyl)-2-pyrazoline [Compound 11] |  |  |  | IC50 [4]: ~1000 µM; IC50 ([5]; MTT, Figure 3b, read-out: IC50 against Jurkat human leukemic T-cells): 90 µM; tumor selectivity in blood cells (PBMC vs Jurkat) ([5]; ratio of IC50 PBMC to IC50 Jurkat): more than 10 times; apoptotic/necrotic effect ([6]; IC50 (11.9 µM, high concentration), 3 h): mainly induced necrosis; apoptotic/necrotic effect ([6]; IC50 concentration, 24 h): late stage apoptotic or necrotic effect; apoptotic/necrotic effect ([6]; low concentration (1.5 µM), 3 h): exhibited apoptotic phenotype; also recorded: induced apoptosis; also recorded: showed apoptotic activity; DNA-cleaving efficiency compared with cisplatin ([7]; IC50 concentrations, iron (II) complex system): more significant than cisplatin; also recorded: much greater than cisplatin; DNA cleavage efficiency with vs without FeSO4, H2O2 and ascorbic acid ([7]; pUC19 DNA, 30 µM each activator): clearly enhanced; cytotoxic activity (in words) [8]: good activity
3 | 1-[(1-Methyl-1H-tetrazol-5-yl)thioacetyl]-3-(2-thienyl)-5-(4-chlorophenyl)-2-pyrazoline [Compound 2] | > 500 | > 500 | > 500 | 
4 | 1-[(5-Phenyl-1,3,4-oxadiazol-2-yl)thioacetyl]-3-(2-thienyl)-5-(4-chlorophenyl)-2-pyrazoline [Compound 8] | 139 ± 26.8 | > 500 | 393 ± 60.4 | 
5 | 1-[(5-(Pyridin-3-yl)-1,3,4-oxadiazol-2-yl)thioacetyl]-3-(2-thienyl)-5-(4-chlorophenyl)-2-pyrazoline [Compound 9] | 108 ± 30.1 | > 500 | > 500 | 
6 | 1-[(1-(2-(Dimethylamino)ethyl)-1H-tetrazol-5-yl)thioacetyl]-3-(2-thienyl)-5-(4-chlorophenyl)-2-pyrazoline [Compound 5] | 216 ± 29.7 | > 500 | > 500 | 
7 | 1-[(1-(4-Hydroxyphenyl)-1H-tetrazol-5-yl)thioacetyl]-3-(2-thienyl)-5-(4-chlorophenyl)-2-pyrazoline [Compound 4] | 65 ± 5.4 | > 500 | > 500 | 
8 | 1-[(Pyrimidin-2-yl)thioacetyl]-3-(2-thienyl)-5-(4-chlorophenyl)-2-pyrazoline [Compound 7] | 236 ± 36.4 | > 500 | > 500 | 
9 | N.N.[Cl][Pt][Cl] [Cisplatin, reference compound] | 22.5 ± 2 | 14.8 ± 1.4 | 4.9 ± 1 | apoptotic/necrotic effect ([6]; IC50 concentration, 24 h): only apoptotic effects
10 | 1-[(5-(4-Chlorophenyl)-1,3,4-oxadiazol-2-yl)thioacetyl]-3-(2-thienyl)-5-(4-chlorophenyl)-2-pyrazoline [Compound 10] |  | 251 ± 30.4 |  | 
11 | 1-[(5-Methyl-1,3,4-thiadiazol-2-yl)thioacetyl]-3-(2-thienyl)-5-(4-chlorophenyl)-2-pyrazoline [Compound 6] | 199 ± 32.8 | > 500 | > 500 | 
12 | 1-[(5-(4-Methoxyphenyl)-1,3,4-oxadiazol-2-yl)thioacetyl]-3-(2-thienyl)-5-(4-chlorophenyl)-2-pyrazoline [Compound 12] |  |  |  | cytotoxicity on U87 cell line (in words) [2]: no significant cytotoxicity
